This assay addresses T1, Human GPR120 short form (Homo sapiens, UniProt Q5NUL3).
T1 construct: expressed in transfected cells
T1 sequence (Q5NUL3 1-361): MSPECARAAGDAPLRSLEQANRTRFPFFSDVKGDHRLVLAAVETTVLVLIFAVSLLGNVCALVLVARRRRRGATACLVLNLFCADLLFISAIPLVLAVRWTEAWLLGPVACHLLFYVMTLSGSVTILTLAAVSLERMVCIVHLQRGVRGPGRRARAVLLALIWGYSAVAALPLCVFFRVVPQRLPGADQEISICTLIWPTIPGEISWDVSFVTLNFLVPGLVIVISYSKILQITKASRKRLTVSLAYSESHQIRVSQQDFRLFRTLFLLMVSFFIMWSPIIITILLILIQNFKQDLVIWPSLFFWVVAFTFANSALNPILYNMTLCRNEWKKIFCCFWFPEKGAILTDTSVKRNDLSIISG
Put plainly: Human GPR120 in Calcium Flux Assay, Procedure Calcium B (4200 cells/well). Type of assay: cell-based. The text has this:
This in vitro assay serves to assess test compound agonist activity against the short splice variant (SVS with Accession number NM_001195755.1 confirmed by sequencing data) of the GPR120 receptor. The Human Short splice variant #2 (NM_001195755.1) is missing an in-frame coding exon compared to variant 1 (the Human Long splice variant NM_181745.3), resulting in a shorter isoform (GPR120-S) lacking a 16 aa protein segment compared to isoform GPR120-L. The assay platform utilizes HEK-293 cells stably transfected to express the Human GPR120 short form. These cells are first loaded with the Ca^+2 sensitive dye, Fluo-4 NW. Upon stimulation, intracellular released Ca^+2 can bind to the dye and alter its fluorescence intensity. This increase in fluorescence signal, and thus the flux in intracellular [Ca^+2], is detected and quantitated by fluorescence imaging using a FLIPR reader. The effect of the agonist is measured as a function of concentration and used to calculate an EC50 based upon a response curve.
In this procedure 4200 cells/well were employed.
A Human GPR120 clone (Genbank accession number NM_001195755.1) was placed into the pcDNA3.1 mammalian expression vector carrying the neomycin resistance gene. A stable mammalian cell was generated by placing the above clone into a HEK293 background. Clonal cells responding to long chain fatty acids had expression levels of GPR120 confirmed by RT-qPCR. Human HEK-GPR120 cells were cultured in Dulbecco's Modified Eagle's Medium (DMEM)/F12 medium supplemented with 10% fetal bovine serum (FBS), 1% L-Glutamine and 1% penicillin/streptomycin and 0.5 mg/ml G-418. Cells were split 2 times a week to keep the cells in the log-phase growth.
In preparation for the assay, HEK cells stably transfected with Human GPR120 (2.5K cells per well in 25 uL growth medium) were seeded into 384-well plates and then incubated overnight (37° C., 5% CO2). The next day, the media was changed to 20 μl assay buffer and the cell starved for 1 h at 37° C. The dye loading solution (2× dye) was prepared using 10 ml assay buffer, 100 μl of 250 mM probenecid, 1 bottle of Component A, and 20 μl of dye in DMSO. Twenty μl of the 2× dye loading buffer was then added to each well. The plates were incubated at 37° C. for 30 min, then at room temperature for an additional 15 minutes, before performing the assay on FLIPR.
Test compounds were prepared in assay buffer (2 μl of test compound+198 μl assay buffer, final DMSO in assay plate is 0.2%) at the desired concentration, more particularly at 100 μM, 50 μM, 25 μM, 12.5 μM, 6.25 μM, 3.125 μM, 1.562 μM, 0.781 μM, 0.391 μM, 0.195 μM, 0.098 μM, 0.049 μM, 0.024 μM and 0.012 μM.
The assay was performed on a FLIPR plate reader using the following parameters. Baseline was read for 10 seconds at 1 sec intervals. The program was set to transfer 10 μL of ligand from compound plate to cell plate after baseline reading. Aspiration was executed at: 10 μl/sec speed, 4.6 μl height; Dispensing was executed at: 30 μl/sec speed, 45 μl height. After compound addition, each well was read for 300 sec, with measurements collected at 1 sec intervals.
The kinetic data from the FLIPR was based upon a 5 minute window for data collection. The fluorescence of each sample well was used for individual calculations of a normalized RFU value, which was defined as maximum response minus the minimum response. The normalized fluorescence reading (RFU) was calculated as follows: RFU=Fmax−Fmin
The data were fitted to a sigmoidal dose-response curve with a variable Hill slope (<2) using nonlinear regression with GraphPad Prism 5.0 to calculate the EC50 values. The Fitting Equation was: Y=Bottom+(Top−Bottom)/(1+10^((LogEC50−X)*HillSlope)), where X is the log of the concentration and Y is the response.
(In general: Calcium assays in cells follow changes in intracellular calcium, usually with a dye or a luminescent sensor.)

Usually EC50 stands for the concentration at which the effect is half-maximal. With `Cc1cc2cc(OC(F)(F)F)cc(COc3ccc(CCC(=O)O)c(C)c3C)c2o1` [Compound 36, 3-(2,3-Dimethyl-4-{[2-methyl-5-(trifluoromethoxy)-1-benzofuran-7-yl]methoxy}phenyl)propanoic acid], the EC50 was 12 nM.

These data come from US9562053B2, “Benzo-fused heterocyclic derivatives useful as agonists of GPR120” (Janssen Pharmaceutica NV, priority 2013, dated 2017).
